US20230338541A1, “USE OF HIGH MOLECULAR WEIGHT HYALURONIC ACID AS OCULAR TRANSPORTING VEHICLE” (I.COM MEDICAL GMBH, priority 2020, published 2023)

Assay: Pre-test: latanoprost dissolved in the 0.15% hylan A vehicle, HPLC
Format: physicochemical
Conditions: 0.15% w/v hylan A vehicle, stirred 18 hours at 40° C., 25 or 50 μg/ml added
Protocol: Sterile bulk solution for the production of COMFORT SHIELD® MDS eye drops (i.com medical GmbH, Munich, Germany) was used as vehicle for the preparation of prototype latanoprost bulk solution (PLBS). The vehicle contained 0.15% w/v hylan A (HA with 2.9 m^3/kg intrinsic viscosity) dissolved in phosphate buffered saline solution (8.035 g/l NaCl; 1.2 mmol/1 Na2HPO4/NaH2PO4; pH 7.4). Latanoprost was obtained from Yonsung Fine Chemicals Co. Ltd., Gyeonggi-do, Republic of Korea. PLBS was prepared by medi-pharm Laboratorium GmbH, Falkensee, Germany by dissolving 20±1 μg/ml latanoprost in the vehicle.
In a pre-test 25 μg/ml and 50 μg/ml latanoprost were added to the vehicle and the solution stirred for 18 hours at 40° C. The latanoprost content was determined by HPLC using a Hypersil BDS C18 5 μg, 150.0×4.0 mm column (VDS optilab) and a UV detector (200 nm).

- latanoprost found to be dissolved in the vehicle: 20.8 µg/mL
SMILES: CC(C)OC(=O)CCC/C=C\C[C@@H]1[C@@H](CC[C@@H](O)CCc2ccccc2)[C@H](O)C[C@@H]1O [latanoprost, Latanoprost]
